Results from patent US6589452B2, “Photochemically controlled photonic crystal diffraction” (University of Pittsburgh, priority 2000, dated 2003).

Tests used:
Format in all cases: physicochemical
[1] = water solubility of the azobenzene derivative; conditions: compared with non-derivatized azobenzene
Source text: In addition, it retains similar photochemical properties as non-derivatized azobenzene.
In a particular embodiment of the invention, an azobenzene derivative, which is modified in order to increase its water solubility, is attached to the reactive PCCA through the reaction of the epoxide groups inside the hydrogel with primary amino groups on the azobenzene derivative. See Example 3. Hereinafter, the functionalized PCCA having azobenzene attached thereto is referred to as “AZO-PCCA”. […] For example, spiropyran may be attached to the gel by directly copolymerizing the spiropyran with the acrylamide. The photosensitive components of the present invention may be synthesized by methods well-known in the art.

[2] = thermal relaxation in the dark (cis-trans azobenzene isomerization); conditions: azobenzene derivative in solution; 24° C.; monoexponential
Description: FIG. 3 is a graph showing the characteristic time for UV irradiation and thermal relaxation of the AZO-PCCA. The characteristic time for UV irradiation (trans-cis azobenzene isomerization), which was performed at 365 nm, 10 mW, is ˜50 seconds (curve 1 and 2). The response time of the PCCA diffraction shift could be reduced by increasing the actinic light power. In addition, the characteristic time for thermal relaxation (cis-trans azobenzene isomerization), which was performed by placing the AZO-PCCA in the dark, is ˜10 days (curve 3 and 4).
(§1) In addition, a shoulder arising from the nπ* transition is evident at long wavelength side of the ππ* peak. This peak, due to nπ* transition, at 434 nm becomes dominant when a photostationary state under UV irradiation is reached (mainly cis-azobenzene). The intensity of the nπ* peak increases as the intensity of the ππ* band decreases due to the conversion of trans isomer to cis under UV light (FIG. 1). This is a typical behavior of azobenzene-type molecules. The photochemical behavior of a water solution of the azobenzene derivative of the present invention was determined under UV irradiation (365 nm, 20 mW) and irradiation with visible light ([…], ˜50 mW). Under 488 nm irradiation, the trans-isomer is restored and the photostationary state under visible light is very close to the equilibrium state in dark. […]

[3] = photochemical behavior of a water solution of the azobenzene derivative under UV irradiation; conditions: UV 365 nm, 20 mW, monoexponential fit
Source text: as §1, with “dark. When the azobenzene derivative was exposed to 365 nm irradiation, kinetic data fitted well to monoexponential function with the characteristic time of ˜40 seconds. In addition, thermal relaxation in dark follows monoexponential function with characteristic time of about 10 days at 24° C. Furthermore, the photochemical behavior of the azobenzene derivative of the present invention when covalently attached to the functionalized PCCA of the present invention was close to that of the azobenzene derivative in solution.” for “dark.”

SMILES: NCc1ccc(N=Nc2ccc(OCC(O)CO)cc2)cc1 (stereo not drawn) [azobenzene derivative, 4-N-aminomethylbenzolazo-4-phenoxy glycerol ether]
- water solubility [1]: improved water solubility
- characteristic time of thermal relaxation in dark [2]: about 10 days
- characteristic time, 365 nm irradiation (trans-cis) [3]: ~40 s
